Nine compounds from publication PMC4830356 (ACS chemical neuroscience, 2015) can be followed below.

In assay [1] the target is T1, human KOR (Homo sapiens, UniProt P41145). Put plainly: In-cell western ERK1/2 phosphorylation in CHO-hKOR cells. The assay is classed as cell-based.
The test system of assay [2] is human KOR. In words: Bias analysis by fitting to the operational model. The conditions noted are these: relative to U69,593; for ΔΔLogR(G−ERK): G protein coupling vs ERK1/2 phosphorylation; for ΔΔLogR(G−ERK) / ΔΔLogR(G−βarr2): ± SEM; for ΔΔLogR(G−βarr2): G protein coupling vs βarrestin2 recruitment; for bias factor (10^ΔΔLogR) G/ERK: antilog of ΔΔLogR(G−ERK); for bias factor (10^ΔΔLogR) G/βarr2: antilog of ΔΔLogR(G−βarr2).

Assay [3] has as its target T1, human KOR. In words: βarrestin2 recruitment, high content imaging in U2OS-hKOR-βarr2-GFP cells. The assay is classed as cell-based. A general note: Recruitment of arrestin is a read-out of receptor activation apart from second messengers.
The target of assay [4] is T1, human KOR. In words: [35S]GTPγS coupling. The assay is classed as biochemical. In general terms: Binding of GTPγS marks nucleotide exchange on a G protein.

Where only a bound is given, the exact number is not on record here.

T1 sequence (P41145 whole entry): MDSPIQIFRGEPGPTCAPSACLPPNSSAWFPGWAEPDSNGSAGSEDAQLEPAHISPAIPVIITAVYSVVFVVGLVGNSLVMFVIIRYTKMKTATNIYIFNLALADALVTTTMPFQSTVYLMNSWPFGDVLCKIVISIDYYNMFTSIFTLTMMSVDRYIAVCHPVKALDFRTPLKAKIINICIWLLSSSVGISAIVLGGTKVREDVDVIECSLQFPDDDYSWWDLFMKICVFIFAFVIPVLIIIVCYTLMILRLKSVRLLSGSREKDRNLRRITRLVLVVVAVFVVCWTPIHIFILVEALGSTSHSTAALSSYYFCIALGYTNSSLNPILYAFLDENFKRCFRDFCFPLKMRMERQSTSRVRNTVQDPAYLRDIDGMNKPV

Consider `FC(F)(F)c1ccc(Cl)c(CSc2nnc(-c3ccccn3)n2Cc2ccco2)c1` [1.1, 2-(5-((2-Chloro-5-(trifluoromethyl)benzyl)thio)-4-(furan-2-yl-methyl)-4H-1,2,4-triazol-3-yl)pyridine], for which, on human KOR [1], the half-maximal effective concentration (EC50) (usually the concentration that produces a half-maximal response) stood at 242 ± 46.9 nM; the “ERK1/2 phosphorylation % U69,593 at 10 μM” value is given as 114 ± 7 % U69,593; the “ERK1/2 phosphorylation EMAX, % of max U69,593” value (shortened to “ERK1/2 phosphorylation EMAX, %”) is 120 ± 10 % of max U69,593. Further, in the assay with human KOR [2], the “ΔΔLogR(G−ERK)” value is given as 2.0 ± 0.19, the “ΔΔLogR(G−βarr2)” value is 1.7 ± 0.19, the “bias factor (10^ΔΔLogR) G/ERK” value was determined as 93 and the “bias factor (10^ΔΔLogR) G/βarr2” value turned out to be 47. On human KOR [3], the EC50 was 8.72 ± 2.18 µM; the “βarrestin2 assay % U69,593 at 10 μM” value was 29 ± 5 % U69,593; the “βarrestin2 assay EMAX, % of max U69,593” value was 56 ± 5 % of max U69,593. For the same compound, on human KOR [4], the midpoint of the response, the EC50, lay at 31.8 ± 6.4 nM and the “G protein assay EMAX, % of max U69,593” value was 98 ± 1 % of max U69,593.

As for `FC(F)(F)c1ccc(Cl)c(CSc2nnc(-c3ccccn3)n2Cc2cccs2)c1` [1.2, 2-(5-((2-Chloro-5-(trifluoromethyl)benzyl)thio)-4-(thiophen-2-ylmethyl)-4H-1,2,4-triazol-3-yl)pyridine], on human KOR [1], the EC50 worked out at 594 ± 115 nM; the “ERK1/2 phosphorylation % U69,593 at 10 μM” value was 128 ± 6 % U69,593; the “ERK1/2 phosphorylation EMAX, %” value was 139 ± 9 % of max U69,593. Further, in the assay on human KOR [2], the “ΔΔLogR(G−ERK)” value came out at 2.6 ± 0.19, the “bias factor (10^ΔΔLogR) G/ERK” value was determined as 419 and the “bias factor (10^ΔΔLogR) G/βarr2” value came out at 122. In addition, at human KOR [3], the response was half-maximal at 6.25 ± 1.44 µM (EC50); the “βarrestin2 assay % U69,593 at 10 μM” value is listed as 94 ± 8 % U69,593; the “βarrestin2 assay EMAX, % of max U69,593” value is 147 ± 25 % of max U69,593. Besides, at human KOR [4], the EC50 was 27.2 ± 3.5 nM and the “G protein assay EMAX, % of max U69,593” value is reported as 98 ± 1 % of max U69,593.

As for `FC(F)(F)c1ccc(Cl)c(CSc2nnc(-c3ccccn3)n2Cc2cccnc2)c1` [1.3, 2-(5-((2-Chloro-5-(trifluoromethyl)benzyl)thio)-4-(pyridin-3-ylmethyl)-4H-1,2,4-triazol-3-yl)pyridine], on human KOR [1], the EC50 was 108 ± 24.5 nM; the “ERK1/2 phosphorylation % U69,593 at 10 μM” value is 107 ± 7 % U69,593; the “ERK1/2 phosphorylation EMAX, %” value is on record as 114 ± 8 % of max U69,593. In the assay on human KOR [2], the “ΔΔLogR(G−ERK)” value is given as 1.0 ± 0.19, the “ΔΔLogR(G−βarr2)” value is 1.2 ± 0.20, the “bias factor (10^ΔΔLogR) G/ERK” value worked out at 9 and the “bias factor (10^ΔΔLogR) G/βarr2” value worked out at 15. In addition, on human KOR [3], the EC50 worked out at 10.1 ± 3.25 µM; the “βarrestin2 assay % U69,593 at 10 μM” value is given as 38 ± 5 % U69,593; the “βarrestin2 assay EMAX, % of max U69,593” value is listed as 65 ± 6 % of max U69,593. Further, at human KOR [4], the half-maximal effective concentration (EC50) stood at 115 ± 8.9 nM and the “G protein assay EMAX, % of max U69,593” value was 97 ± 1 % of max U69,593.

`Ic1ccc(CSc2nnc(-c3ccccn3)n2Cc2ccco2)cc1` [2.1, 2-(5-((4-Iodobenzyl)thio)-4-(furan-2-ylmethyl)-4H-1,2,4-triazol-3-yl)pyridine]: at human KOR [1], the response was half-maximal at 222 ± 22.9 nM (EC50); the “ERK1/2 phosphorylation % U69,593 at 10 μM” value is listed as 113 ± 8 % U69,593; the “ERK1/2 phosphorylation EMAX, %” value is on record as 131 ± 10 % of max U69,593. In the assay on human KOR [2], the “ΔΔLogR(G−ERK)” value was determined as 1.9 ± 0.19, the “ΔΔLogR(G−βarr2)” value is 1.7 ± 0.19, the “bias factor (10^ΔΔLogR) G/ERK” value was 88 and the “bias factor (10^ΔΔLogR) G/βarr2” value was found to be 49. Besides, on human KOR [3], the EC50 stood at 13.5 ± 8.29 µM; the “βarrestin2 assay % U69,593 at 10 μM” value is 105 ± 2 % U69,593; the “βarrestin2 assay EMAX, % of max U69,593” value is 228 ± 96 % of max U69,593. For the same compound, on human KOR [4], it took 30.3 ± 4.5 nM to reach a half-maximal effect (EC50) and the “G protein assay EMAX, % of max U69,593” value is listed as 95 ± 1 % of max U69,593.

As to `Ic1ccc(CSc2nnc(-c3ccccn3)n2Cc2cccs2)cc1` [2.2, 2-(5-((4-Iodobenzyl)thio)-4-(thiophen-2-ylmethyl)-4H-1,2,4-triazol-3-yl)pyridine], at human KOR [1], the EC50 stood at 789 ± 159 nM; the “ERK1/2 phosphorylation % U69,593 at 10 μM” value is given as 131 ± 4 % U69,593; the “ERK1/2 phosphorylation EMAX, %” value is listed as 143 ± 4 % of max U69,593. Besides, in the assay on human KOR [2], the “ΔΔLogR(G−ERK)” value amounted to 2.5 ± 0.19, the “ΔΔLogR(G−βarr2)” value is 1.5 ± 0.19, the “bias factor (10^ΔΔLogR) G/ERK” value came out at 304 and the “bias factor (10^ΔΔLogR) G/βarr2” value is reported as 33. At human KOR [3], it took 3.57 ± 0.68 µM to reach a half-maximal effect (EC50); the “βarrestin2 assay % U69,593 at 10 μM” value is 94 ± 9 % U69,593; the “βarrestin2 assay EMAX, % of max U69,593” value was 123 ± 19 % of max U69,593. Further, on human KOR [4], the EC50 amounted to 40.3 ± 8.5 nM and the “G protein assay EMAX, % of max U69,593” value was 100 ± 1 % of max U69,593.

Regarding `Ic1ccc(CSc2nnc(-c3ccccn3)n2Cc2cccnc2)cc1` [2.3, 2-(5-((4-Iodobenzyl)thio)-4-(pyridin-3-ylmethyl)-4H-1,2,4-tri-azol-3-yl)pyridine], on human KOR [1], the “ERK1/2 phosphorylation % U69,593 at 10 μM” value is on record as 110 ± 8 % U69,593 and the “ERK1/2 phosphorylation EMAX, %” value was 109 ± 6 % of max U69,593. In the assay with human KOR [2], the “ΔΔLogR(G−ERK)” value is on record as 1.2 ± 0.22, the “ΔΔLogR(G−βarr2)” value is 1.4 ± 0.22, the “bias factor (10^ΔΔLogR) G/ERK” value turned out to be 16 and the “bias factor (10^ΔΔLogR) G/βarr2” value was found to be 25. At human KOR [3], the “βarrestin2 assay % U69,593 at 10 μM” value was 46 ± 3 % U69,593 and the “βarrestin2 assay EMAX, % of max U69,593” value is 101 ± 7 % of max U69,593. Besides, the “G protein assay EMAX, % of max U69,593” value at human KOR [4] is on record as 98 ± 3 % of max U69,593.

On to `Brc1ccc(CSc2nnc(-c3ccccn3)n2Cc2ccco2)cc1` [3.1, 2-(5-((4-Bromobenzyl)thio)-4-(furan-2-ylmethyl)-4H-1,2,4-tri-azol-3-yl)pyridine], for which, on human KOR [1], a half-maximal effect (EC50) was put at 340 ± 25.1 nM; the “ERK1/2 phosphorylation % U69,593 at 10 μM” value is on record as 114 ± 4 % U69,593; the “ERK1/2 phosphorylation EMAX, %” value is reported as 125 ± 2 % of max U69,593. Also, in the assay with human KOR [2], the “ΔΔLogR(G−ERK)” value is given as 1.7 ± 0.20, the “ΔΔLogR(G−βarr2)” value is 1.2 ± 0.20, the “bias factor (10^ΔΔLogR) G/ERK” value turned out to be 47 and the “bias factor (10^ΔΔLogR) G/βarr2” value came to 17. Besides, on human KOR [3], the EC50 was above 31 µM and the “βarrestin2 assay % U69,593 at 10 μM” value is reported as 58 ± 8 % U69,593. In addition, on human KOR [4], the EC50 was 84.7 ± 18.4 nM and the “G protein assay EMAX, % of max U69,593” value is recorded as 91 ± 3 % of max U69,593.

With `Brc1ccc(CSc2nnc(-c3ccccn3)n2Cc2cccs2)cc1` [3.2, 2-(5-((4-Bromobenzyl)thio)-4-(thiophen-2-ylmethyl)-4H-1,2,4-triazol-3-yl)pyridine], on human KOR [1], the midpoint of the response, the EC50, lay at 672 ± 113 nM; the “ERK1/2 phosphorylation % U69,593 at 10 μM” value is 135 ± 8 % U69,593; the “ERK1/2 phosphorylation EMAX, %” value is given as 149 ± 13 % of max U69,593. For the same compound, in the assay with human KOR [2], the “ΔΔLogR(G−ERK)” value is 1.7 ± 0.22, the “ΔΔLogR(G−βarr2)” value turned out to be 0.9 ± 0.22, the “bias factor (10^ΔΔLogR) G/ERK” value worked out at 46 and the “bias factor (10^ΔΔLogR) G/βarr2” value amounted to 7. On human KOR [3], the EC50 worked out at 1.94 ± 0.0909 µM; the “βarrestin2 assay % U69,593 at 10 μM” value was 87 ± 3 % U69,593; the “βarrestin2 assay EMAX, % of max U69,593” value is given as 94 ± 2 % of max U69,593. Further, on human KOR [4], a half-maximal effect (EC50) was put at 66.6 ± 15.1 nM and the “G protein assay EMAX, % of max U69,593” value is given as 98 ± 1 % of max U69,593.

As for `Brc1ccc(CSc2nnc(-c3ccccn3)n2Cc2cccnc2)cc1` [3.3, 2-(5-((4-Bromobenzyl)thio)-4-(pyridin-3-ylmethyl)-4H-1,2,4-triazol-3-yl)pyridine], on human KOR [1], the half-maximal effective concentration (EC50) amounted to 227 ± 40.1 nM; the “ERK1/2 phosphorylation % U69,593 at 10 μM” value is recorded as 112 ± 6 % U69,593; the “ERK1/2 phosphorylation EMAX, %” value is on record as 117 ± 7 % of max U69,593. Moreover, in the assay on human KOR [2], the “ΔΔLogR(G−ERK)” value is on record as 1.1 ± 0.19, the “ΔΔLogR(G−βarr2)” value amounted to 1.6 ± 0.22, the “bias factor (10^ΔΔLogR) G/ERK” value stood at 14 and the “bias factor (10^ΔΔLogR) G/βarr2” value stood at 37. At human KOR [3], the 50% effective concentration (EC50) was above 31 µM and the “βarrestin2 assay % U69,593 at 10 μM” value is 10 ± 7 % U69,593. For the same compound, at human KOR [4], a half-maximal response (EC50) required 149 ± 11.5 nM and the “G protein assay EMAX, % of max U69,593” value is given as 94 ± 4 % of max U69,593.
